The values below come from patent US5453441A, “Substituted arginines and substituted homoarginines and use thereof” (Cornell Research Foundation, Inc., priority 1994, dated 1995).

Assay [1] relates to inducible form of nitric oxide synthase. As to the kind of experiment: Inhibition of nitric oxide synthesis by nitric oxide synthase (inducible form) from cytokine-treated rat aortic smooth muscle cells. Format: biochemical, adult male Fischer 344 rats. The method, then:
Reaction mixtures were made up containing 50 μL of a working solution, 10 μL myoglobin solution (3 mg/ml), 10 μL inhibitor, 20 μL nitric oxide synthase and 10 μL water.
The working mixture was made up to contain 160 mM tris buffer, 200 μM L-arginine, 1 mM NADPH, 20 μM flavin adenine dinucleotide, 20 μM tetrahydrobiopterin in distilled water (pH adjusted to 7.6 by adding 10N NaOH).
The nitric oxide synthase was obtained as follows: Aortic smooth muscle cells were cultured by explanting segments of the medial layer of aortae from adult male Fischer 344 rats. Aortae were removed aseptically and freed of adventitial and endothelial cells by scraping both the lumenal and abluminal surfaces. Medial fragments (1-2 mm) were allowed to attach to dry Primaria 25 cm^2 tissue culture flasks (Falcon; Oxnard, Calif.) which were kept moist with growth medium until cells emerged. Cultures were fed twice weekly with medium 199 containing 10% fetal bovine serum, 25 mM HEPES, 2 mM L-glutamine, 40 μg/ml endothelial cell growth supplement (Biomedical Technologies; Stoughton, Mass.) and 10 μg/ml gentamycin (GIBCO; Grand Island, N.Y.). When primary cultures became confluent, they were passaged by trypsinization. Cells in passage 10-15 were seeded at 20,000/well. […]

For the next assay, the system named is pressor response. The assay is classed as in vivo, rat. The note with it: phenylephrine 0.1 to 10 μg/kg, angiotensin II 0.01 to 1 μg/kg. The method, then:
To establish that nitric oxide overproduction can result in a diminished sensitivity to pressor agents, studies in a rat model of septic hypotension, i.e., the endotoxic-, pithed-rat, are performed.
Animals are either untreated (control) or treated with endotoxin (lipopolysaccharide-treated; 15 mg/kg, i.p.) 6 hours prior to their being pithed and instrumented for blood pressure recording. Prior to pithing, mean systematic arterial pressure in control rats is about 120 mm Hg. Pressure falls about 50% after pithing of control animals and is reduced to about 25% of normal in pithed endotoxin-treated animals.
Responsiveness is restored to more than 50% of the responsiveness seen in pithed control rats.

Take `CC(N)(CCCNC(=N)NN)C(=O)O` (racemic) [α-methyl-N^ω -amino-DL-arginine, α-Methyl-N^ω -Amino-DL-Arginine]: the “effectiveness relative to the commercial compound (N^ω -methyl-DL-arginine), based on the concentration necessary to inhibit 50%” value in assay [1] is on record as “about twice as effective as the commercial compound”.

Turning to “angiotensin II: listed among suitable α1 -adrenergic agonists; pressor agent (DRVYIHPF; Angiotensin-2; UniProt P01019 25-32, looked up)”, in the assay on pressor response, the “pressor effect in pithed control rats” value is “strong pressor effect” and the “pressor effect in pithed endotoxic rats” value is “negligible effect”.

On to `CNC[C@H](O)c1cccc(O)c1` [phenylephrine], for which, in the assay on pressor response, the “pressor effect in pithed control rats” value is recorded as “strong pressor effect” and the “pressor effect in pithed endotoxic rats” value is recorded as “negligible effect”.
